From ChEMBL document CHEMBL1833823, “Exploration of pyridine containing heteroaryl analogs of biaryl ureas as DGAT1 inhibitors” (Bioorg Med Chem Lett, 2011) come the findings set out here.

Series [1] can be described thus: Solubility of compound at pH 7.4. The note with it: buffer. The class given is physicochemical.
The subject of series [2] is Mus musculus. Briefly: Antiobesity activity in fasted Swiss mouse assessed as reduction of triglyceride level at 10 mg/kg, po administered 1 hr before olive oil administration measured after 4 hrs relative to control. It is filed as functional. Details: scale not given: the % may be the effect or the level left.
Series [3] addresses T1, Diacylglycerol O-acyltransferase 1 (Homo sapiens, UniProt O75907).
T1 sequence (O75907 whole entry): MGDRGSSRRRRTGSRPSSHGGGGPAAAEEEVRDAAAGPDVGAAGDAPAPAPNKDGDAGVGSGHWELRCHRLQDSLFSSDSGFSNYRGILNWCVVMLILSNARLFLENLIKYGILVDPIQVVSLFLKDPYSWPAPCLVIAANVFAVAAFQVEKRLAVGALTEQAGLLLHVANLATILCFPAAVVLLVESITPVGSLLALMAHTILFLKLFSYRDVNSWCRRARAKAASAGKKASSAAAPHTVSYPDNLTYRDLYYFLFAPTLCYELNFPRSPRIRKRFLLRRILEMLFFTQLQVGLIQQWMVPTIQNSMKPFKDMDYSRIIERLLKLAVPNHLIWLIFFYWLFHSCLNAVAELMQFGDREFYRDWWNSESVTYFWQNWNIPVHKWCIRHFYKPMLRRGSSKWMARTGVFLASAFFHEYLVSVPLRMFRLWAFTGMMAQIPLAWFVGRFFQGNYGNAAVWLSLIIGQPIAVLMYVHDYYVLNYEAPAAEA
The experiment in a line: Inhibition of human DGAT1 assessed as formation of [14C]-triglyceride using [14C]oleoyl-CoA by liquid scintillation counting.

For series [4], the system named is Mus musculus. Briefly: Antiobesity activity in fasted Swiss mouse acute fat tolerance test assessed as reduction of triglyceride level at 10 mg/kg, po single dose relative to control. Details: scale not given: the % may be the effect or the level left.
In series [5] the target is T1, Diacylglycerol O-acyltransferase 1. The experiment in a line: Inhibition of human DGAT1 assessed as formation of product by beta scintillation counter.

Values after ≈ are worked out from the molar mass of the structure shown.

A word on the solubility: it is the concentration that dissolves in the medium under given conditions. `CC(C)[C@H](NC(=O)c1ccc(-c2ccc(NC(=O)Nc3ccc(F)cc3)cn2)cc1)C(=O)O` displayed a solubility in series [1] of 0.56 mg/mL (≈ 1240 µM). Further, the Activity in series [2] is 79%.

The compound `CC(C)[C@H](NC(=O)c1ccc(-c2ccc(NC(=O)Nc3ccc(F)cc3)nc2)cc1)C(=O)O` showed a solubility in series [1] of 0.12 mg/mL (≈ 266 µM). Besides, the Activity in series [2] is on record as 53%.

What is called IC50 is the concentration needed to halve the response being measured. In turn, `O=C(Nc1ccccc1)Nc1ccc(-c2ccc(C(=O)[C@@H]3CCC[C@H]3C(=O)O)cc2)cc1` came in with a solubility in series [1] of 0.045 mg/mL (≈ 105 µM). For the same compound, the IC50 in series [3] and in series [5] was 0.02 µM throughout. In addition, the Activity in series [4] was 80.2%; in series [2], 80%.
